Several values for one entry are separate records, joined by “and”; a condition that tells them apart may be missing. Identical values can stand only once. Inconclusive results and toxic doses are left out.
Tested on: L1210 leukemia ip in BDF1 mice, survival T/C
Assay: NCI In Vivo Anticancer Drug Screen. Data for tumor model L1210 Leukemia (intraperitoneal) in B6D2F1 (BDF1) mice
Conditions: endpoint: mean survival time, higher = longer survival
Summary of the method: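 Mice bearing the transplanted tumor received compound or vehicle. Survival of the treated group was divided by that of the vehicle-treated control group to give the ratio.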

[1] = dose: 100.0 mg/kg/injection, schedule: Q04DX003 (ip), vehicle: saline
[2] = dose: 200.0 mg/kg/injection, schedule: Q04DX003 (ip), vehicle: saline
[3] = dose: 400.0 mg/kg/injection, schedule: Q04DX003 (ip), vehicle: saline
[4] = dose: 100.0 mg/kg/injection, schedule: Q01DX001 (ip), vehicle: saline
[5] = dose: 200.0 mg/kg/injection, schedule: Q01DX001 (ip), vehicle: saline
[6] = dose: 400.0 mg/kg/injection, schedule: Q01DX001 (ip), vehicle: saline

CC1CN1CC(O)C(O)CN1CC1C (centres undefined)
T/C (dose: 0.07 mg/kg/injection, schedule: Q01DX Z (ip), vehicle: saline): 101 % of control
T/C (dose: 0.07 mg/kg/injection, schedule: Q01DX Z (ip), vehicle: water): 108 % of control
T/C (dose: 0.1 mg/kg/injection, schedule: Q01DX Z (ip), vehicle: saline): 106 % of control
T/C (dose: 0.1 mg/kg/injection, schedule: Q01DX Z (ip), vehicle: water): 110 % of control
T/C (dose: 0.15 mg/kg/injection, schedule: Q01DX Z (ip), vehicle: saline): 106 % of control and 110 % of control
T/C (dose: 0.15 mg/kg/injection, schedule: Q01DX Z (ip), vehicle: water): 118 % of control
T/C (dose: 0.22 mg/kg/injection, schedule: Q01DX Z (ip), vehicle: saline): 104 % of control and 114 % of control
T/C (dose: 0.22 mg/kg/injection, schedule: Q01DX Z (ip), vehicle: water): 124 % of control
T/C (dose: 0.26 mg/kg/injection, schedule: Q01DX009 (ip), vehicle: saline): 160 % of control
T/C (dose: 0.26 mg/kg/injection, schedule: Q04DX003 (ip), vehicle: saline): 117 % of control
T/C (dose: 0.31 mg/kg/injection, schedule: Q01DX001 (ip), vehicle: carboxymethylcellulose (CMC)): 105 % of control
T/C (dose: 0.33 mg/kg/injection, schedule: Q01DX015 (ip), vehicle: saline): 165 % of control
T/C (dose: 0.33 mg/kg/injection, schedule: Q01DX Z (ip), vehicle: saline): 121 % of control
T/C (dose: 0.4 mg/kg/injection, schedule: Q01DX009 (ip), vehicle: saline): 152 % of control
T/C (dose: 0.5 mg/kg/injection, schedule: Q01DX001 (ip), vehicle: saline): 108 % of control
T/C (dose: 0.5 mg/kg/injection, schedule: Q01DX015 (ip), vehicle: saline): 117 % of control
T/C (dose: 0.6 mg/kg/injection, schedule: Q01DX015 (ip), vehicle: saline): 163 % of control
T/C (dose: 0.62 mg/kg/injection, schedule: Q01DX001 (ip), vehicle: carboxymethylcellulose (CMC)): 121 % of control
T/C (dose: 1.0 mg/kg/injection, schedule: Q01DX001 (ip), vehicle: saline): 113 % of control
T/C (dose: 1.0 mg/kg/injection, schedule: Q01DX015 (ip), vehicle: saline): 153 % of control and 207 % of control
T/C (dose: 1.25 mg/kg/injection, schedule: Q01DX001 (ip), vehicle: carboxymethylcellulose (CMC)): 121 % of control
T/C (dose: 1.4 mg/kg/injection, schedule: Q04DX003 (ip), vehicle: saline): 153 % of control
T/C (dose: 1.8 mg/kg/injection, schedule: Q01DX015 (ip), vehicle: saline): 97 % of control and 116 % of control
T/C (dose: 2.0 mg/kg/injection, schedule: Q01DX015 (ip), vehicle: saline): 207 % of control and 221 % of control
T/C (dose: 2.1 mg/kg/injection, schedule: Q04DX003 (ip), vehicle: saline): 166 % of control
T/C (dose: 2.5 mg/kg/injection, schedule: Q01DX001 (ip), vehicle: carboxymethylcellulose (CMC)): 150 % of control
T/C (dose: 2.5 mg/kg/injection, schedule: Q01DX001 (ip), vehicle: saline): 152 % of control
T/C (dose: 3.0 mg/kg/injection, schedule: Q01DX001 (ip), vehicle: saline): 102 % of control
T/C (dose: 3.0 mg/kg/injection, schedule: Q01DX015 (ip), vehicle: saline): 261 % of control
T/C (dose: 3.3 mg/kg/injection, schedule: Q04DX003 (ip), vehicle: saline): 160 % of control
T/C (dose: 4.0 mg/kg/injection, schedule: Q01DX001 (ip), vehicle: saline): 157 % of control
T/C (dose: 4.0 mg/kg/injection, schedule: Q01DX015 (ip), vehicle: saline): 166 % of control
T/C (dose: 5.0 mg/kg/injection, schedule: Q01DX001 (ip), vehicle: carboxymethylcellulose (CMC)): 152 % of control
T/C (dose: 5.0 mg/kg/injection, schedule: Q01DX001 (ip), vehicle: saline): 158 % of control
T/C (dose: 5.5 mg/kg/injection, schedule: Q01DX001 (ip), vehicle: saline): 157 % of control
T/C (dose: 7.5 mg/kg/injection, schedule: Q04DX003 (ip), vehicle: saline): 95 % of control and 257 % of control
T/C (dose: 8.0 mg/kg/injection, schedule: Q01DX015 (ip), vehicle: saline): 122 % of control and 86 % of control and 87 % of control
T/C (dose: 10.0 mg/kg/injection, schedule: Q01DX001 (ip), vehicle: carboxymethylcellulose (CMC)): 236 % of control
T/C (dose: 10.0 mg/kg/injection, schedule: Q01DX001 (ip), vehicle: saline): 210 % of control
T/C (dose: 11.0 mg/kg/injection, schedule: Q01DX001 (ip), vehicle: saline): 247 % of control and 108 % of control and 116 % of control
T/C (dose: 15.0 mg/kg/injection, schedule: Q01DX001 (ip), vehicle: saline): 250 % of control
T/C (dose: 20.0 mg/kg/injection, schedule: Q01DX001 (ip), vehicle: saline): 91 % of control
T/C (dose: 22.0 mg/kg/injection, schedule: Q01DX001 (ip), vehicle: saline): 168 % of control
T/C (dose: 25.0 mg/kg/injection, schedule: Q01DX001 (ip), vehicle: saline): 120 % of control
T/C (dose: 30.0 mg/kg/injection, schedule: Q01DX001 (ip), vehicle: saline): 87 % of control
T/C (dose: 41.0 micrograms/kg/injection, schedule: Q01DX015 (ip), vehicle: saline): 104 % of control
T/C (dose: 50.0 micrograms/kg/injection, schedule: Q01DX009 (ip), vehicle: saline): 101 % of control
T/C (dose: 62.0 micrograms/kg/injection, schedule: Q01DX015 (ip), vehicle: saline): 108 % of control
T/C (dose: 75.0 micrograms/kg/injection, schedule: Q01DX009 (ip), vehicle: saline): 104 % of control
T/C (dose: 113.0 micrograms/kg/injection, schedule: Q01DX009 (ip), vehicle: saline): 110 % of control
T/C (dose: 140.0 micrograms/kg/injection, schedule: Q01DX001 (ip), vehicle: saline): 113 % of control
T/C (dose: 210.0 micrograms/kg/injection, schedule: Q01DX001 (ip), vehicle: saline): 120 % of control

C(=N/OC(c1ccccc1)(c1ccccc1)c1ccccc1)/c1ccccc1
T/C (dose: 50.0 mg/kg/injection, schedule: Q01DX009 (ip), vehicle: saline): 98 % of control
T/C (dose: 75.0 mg/kg/injection, schedule: Q04DX003 (ip), vehicle: saline): 92 % of control
T/C (dose: 100.0 mg/kg/injection, schedule: Q01DX009 (ip), vehicle: saline): 104 % of control
T/C (dose: 100.0 mg/kg/injection, schedule: Q04DX003 (ip), vehicle: Klucel (hydroxypropylcellulose) (HPC)): 101 % of control
T/C [1]: 95 % of control
T/C (dose: 150.0 mg/kg/injection, schedule: Q04DX003 (ip), vehicle: saline): 94 % of control
T/C (dose: 200.0 mg/kg/injection, schedule: Q01DX009 (ip), vehicle: saline): 98 % of control
T/C (dose: 200.0 mg/kg/injection, schedule: Q04DX003 (ip), vehicle: Klucel (hydroxypropylcellulose) (HPC)): 103 % of control
T/C [2]: 95 % of control
T/C (dose: 300.0 mg/kg/injection, schedule: Q04DX003 (ip), vehicle: saline): 89 % of control
T/C (dose: 400.0 mg/kg/injection, schedule: Q04DX003 (ip), vehicle: Klucel (hydroxypropylcellulose) (HPC)): 101 % of control
T/C [3]: 95 % of control

CCCCCCCCCCCC(=O)NN
T/C (dose: 18.8 mg/kg/injection, schedule: Q01DX009 (ip), vehicle: carboxymethylcellulose (CMC)): 105 % of control
T/C (dose: 37.5 mg/kg/injection, schedule: Q01DX009 (ip), vehicle: carboxymethylcellulose (CMC)): 96 % of control
T/C (dose: 75.0 mg/kg/injection, schedule: Q01DX009 (ip), vehicle: carboxymethylcellulose (CMC)): 109 % of control and 114 % of control
T/C [4]: 98 % of control
T/C [5]: 104 % of control
T/C [6]: 106 % of control

Oc1ccc(Cl)cc1/C=N/Nc1c2ccccc2nc2ccccc12
T/C [4]: 89 % of control
T/C [5]: 103 % of control
T/C [6]: 105 % of control

CCSC(=O)N=Nc1ccc(O)cc1
T/C (dose: 50.0 mg/kg/injection, schedule: Q01DX001 (ip), vehicle: saline): 103 % of control
T/C [4]: 100 % of control
T/C [5]: 94 % of control
T/C [6]: 111 % of control

N#C/C(=C\c1cc(Cl)cc(Cl)c1O)C(/C(C#N)=C/c1cc(Cl)cc(Cl)c1O)c1ccc2c(c1)OCO2 (centres undefined)
T/C (dose: 100.0 mg/kg/injection, schedule: Q01DX009 (ip), vehicle: saline with Tween-80): 97 % of control
T/C [1]: 98 % of control
T/C (dose: 200.0 mg/kg/injection, schedule: Q01DX009 (ip), vehicle: saline with Tween-80): 94 % of control
T/C (dose: 200.0 mg/kg/injection, schedule: Q04DX003 (ip), vehicle: saline with Tween-80): 103 % of control
T/C [2]: 100 % of control
T/C (dose: 400.0 mg/kg/injection, schedule: Q01DX009 (ip), vehicle: saline with Tween-80): 89 % of control
T/C [3]: 98 % of control
